Drawing on ChEMBL document CHEMBL1146842, “Design, synthesis, and biological evaluations of novel quinolones as HIV-1 non-nucleoside reverse transcriptase inhibitors” (Bioorg Med Chem Lett, 2006), this text covers EC50 and CC50 for 41 compounds.

The structures appear in SMILES notation. Bounds are passed on as bounds.

For test [1], the system named is Human immunodeficiency virus 1. The test is described as follows: Antiviral activity against HIV1. It is filed as functional, organism-based.
Test [2] has as its system HEK293. Description: Cytotoxicity against HEK293T cells. Type of test: functional. The conditions noted are these: Homo sapiens.
The subject of test [3] is Human immunodeficiency virus 1. The test is described as follows: Antiviral activity against HIV1 K103N mutant. It is filed as functional, organism-based.
The test system of test [4] is Human immunodeficiency virus 1. Description: Antiviral activity against HIV1 Y181S mutant. Type of test: functional, organism-based.
Test [5] has as its system Human immunodeficiency virus 1. Description: Antiviral activity against HIV1 V179E mutant. Type of test: functional, organism-based.
Test [6] relates to Human immunodeficiency virus 1. Description: Antiviral activity against HIV1 Y181C mutant. Type of test: functional, organism-based.
For test [7], the system named is Human immunodeficiency virus 1. The test is described as follows: Antiviral activity against HIV1 V106A mutant. It is filed as functional, organism-based.
The subject of test [8] is Human immunodeficiency virus 1. The test is described as follows: Antiviral activity against HIV1 F227L mutant. Type of test: functional, organism-based.
For test [9], the system named is Human immunodeficiency virus 1. Description: Antiviral activity against HIV1 Y181H mutant. It is filed as functional, organism-based.
The subject of test [10] is Human immunodeficiency virus 1. The test is described as follows: Antiviral activity against HIV1 E138K mutant. It is filed as functional, organism-based.
The test system of test [11] is Human immunodeficiency virus 1. The test is described as follows: Antiviral activity against HIV1 I135V mutant. It is filed as functional, organism-based.
In test [12] the test system is Human immunodeficiency virus 1. Description: Antiviral activity against HIV1 L100I mutant. Type of test: functional, organism-based.
For test [13], the system named is Human immunodeficiency virus 1. Description: Antiviral activity against HIV1 Y188L mutant. It is filed as functional, organism-based.

As a reminder, the EC50 is the concentration giving half of the maximal effect. Read a low EC50 as a more potent agent. Broadly, the CC50 is the concentration giving 50% cytotoxicity. A high value points to lower toxicity to the cells. `CCCCC12CC1(C(=O)Nc1ccc(C(=O)O)cc1)C(=O)Nc1ccc(Cl)cc12` (centres undefined) came in with an EC50 in test [1] greater than 10000 nM. In [2], the CC50 is greater than 10000 nM.
For `CCCCC12CC1(C(=O)Nc1ccncc1)C(=O)Nc1ccc(Cl)cc12` (centres undefined), it took 8260 nM to reach a half-maximal effect in test [1] (EC50). The same compound showed a half-maximal cytotoxic concentration (CC50) in test [2] greater than 10000 nM.
The like results for `CCCCC12CC1(CO)C(=O)Nc1ccc(Cl)cc12` (centres undefined) were, in that order, 743 nM and greater than 10000 nM.
Compound `CCCCC1(C)c2cc(Cl)ccc2NC(=O)C1C(=O)OCC` (centres undefined) came in with an EC50 in test [1] of 1400 nM. The compound also registered a CC50 in [2] greater than 10000 nM.
The like results for `CCCCC12CC1(C(=O)N(C)CC)C(=O)Nc1ccc(Cl)cc12` (centres undefined) were, in that order, greater than 10000 nM and greater than 10000 nM.
The compound `CCOC(=O)C12CC1(C(C)C)c1cc(Cl)ccc1NC2=O` (centres undefined) registered an EC50 in test [1] greater than 10000 nM. This compound also had a CC50 in [2] greater than 10000 nM.
`CCCCC(=O)C12CC1(CCCC)c1cc(Cl)ccc1NC2=O` (centres undefined): in test [1], the midpoint of the response, the EC50, lay at 6300 nM. In test [2], this compound came in with a CC50 greater than 10000 nM.
The like results for `CCCCC12CC1(C(=O)NCCC(=O)O)C(=O)Nc1ccc(Cl)cc12` (centres undefined) were, in that order, greater than 10000 nM and greater than 10000 nM.
The like results for `CCCCC12CC1(C(=O)Nc1ccc(C(N)=O)cc1)C(=O)Nc1ccc(Cl)cc12` (centres undefined) were, in that order, 4550 nM and greater than 10000 nM.
Consider `CCCC12CC1(C(=O)OCC)C(=O)Nc1ccc(Cl)cc12` (centres undefined), for which the concentration giving a half-maximal response (EC50) in test [3] is greater than 10000 nM; in test [1], 45 nM; in [4], 1210 nM; in test [5] it was 1890 nM; in [6], greater than 10000 nM; in test [7] it was 1010 nM. The concentration giving a half-maximal response (EC50) in test [8] was 26 nM; in test [9] it was 210 nM; in test [10] it was 132 nM; in test [11], 97 nM; in test [12], 41 nM; in test [13] it was greater than 10000 nM. This compound also showed a CC50 in test [2] greater than 10000 nM.
In the case of `CCCCC12CC1(C(=O)Nc1cccc(C#N)c1)C(=O)Nc1ccc(Cl)cc12` (centres undefined), a half-maximal response in test [1] (EC50) required 160 nM. In test [2], this compound returned a CC50 greater than 10000 nM.
The like results for `CCOC(=O)C12CC1(CCc1ccccc1)c1cc(Cl)ccc1NC2=O` (centres undefined) were, in that order, 221 nM and greater than 10000 nM.
The compound `CCOC(=O)C12CC1(C1CCCC1)c1cc(Cl)ccc1NC2=O` (centres undefined) returned an EC50 in test [1] of 3250 nM. The compound also returned a CC50 in test [2] greater than 10000 nM.
The like results for `CCCCC12CC1(C(=O)NCC)C(=O)Nc1ccc(Cl)cc12` (centres undefined) were, in that order, 747 nM and greater than 10000 nM.
On to `CCOC(=O)C12CC1(Cc1ccccc1)c1cc(Cl)ccc1NC2=O` (centres undefined), for which the EC50 in [1] is greater than 10000 nM. For the same compound, the CC50 in [2] is greater than 10000 nM.
For `C=CCNC(=O)C12CC1(CCCC)c1cc(Cl)ccc1NC2=O` (centres undefined), the concentration giving a half-maximal response (EC50) in test [1] was 489 nM. The compound also came in with a CC50 in [2] greater than 10000 nM.
Compound `CCOC(=O)C12CC1(CC)c1cc(Cl)ccc1NC2=O` (centres undefined) returned a concentration for a half-maximal effect (EC50) in test [1] of 5040 nM. Moreover, in [2], the CC50 is greater than 10000 nM.
The like results for `CCCCC12CC1(C(=O)CCC)C(=O)Nc1ccc(Cl)cc12` (centres undefined) were, in that order, 265 nM and greater than 10000 nM.
In test [1], `CCCCC12CC1(C#N)C(=O)Nc1ccc(Cl)cc12` (centres undefined) yielded a concentration giving a half-maximal response (EC50) of 197 nM. Moreover, the CC50 in [2] was greater than 10000 nM.
The like results for `CCCCC12CC1(C(=O)Oc1ccc(C#N)cc1)C(=O)Nc1ccc(Cl)cc12` (centres undefined) were, in that order, 1100 nM and greater than 10000 nM.
`CCOC(=O)C12CC1(C)c1cc(Cl)ccc1NC2=O` (centres undefined) had an EC50 in [1] greater than 10000 nM. The compound also came in with a CC50 in test [2] greater than 10000 nM.
On to `CCCCC12CC1(C(=O)OCCC#N)C(=O)Nc1ccc(Cl)cc12` (centres undefined), for which a half-maximal effect in [1] (EC50) was put at 113 nM. In test [2], the CC50 is greater than 10000 nM.
The like results for `CCCCC12CC1(C(=O)Nc1ccccn1)C(=O)Nc1ccc(Cl)cc12` (centres undefined) were, in that order, 2700 nM and greater than 10000 nM.
With `CCCCC12CC1(C(=O)CC1CC1)C(=O)Nc1ccc(Cl)cc12` (centres undefined), the EC50 in test [1] worked out at 5690 nM. The compound further registered a CC50 in test [2] greater than 10000 nM.
Turning to `CCCCC12CC1(C(=O)Nc1ccccc1C(N)=O)C(=O)Nc1ccc(Cl)cc12` (centres undefined), the EC50 in test [1] amounted to 1330 nM. In test [2], this compound registered a CC50 greater than 10000 nM.
The like results for `CCCCC12CC1(C(=O)NC(C)C)C(=O)Nc1ccc(Cl)cc12` (centres undefined) were, in that order, 2780 nM and greater than 10000 nM.
The like results for `CCCCC12CC1(C(=O)Oc1ccccc1)C(=O)Nc1ccc(Cl)cc12` (centres undefined) were, in that order, greater than 10000 nM and greater than 10000 nM.
As for `CCCCC12CC1(C(=O)OCC)C(=O)Nc1ccc(Cl)cc12` (centres undefined), the EC50 amounted to 884 nM in test [3]; 3 nM in test [1]; 684 nM in test [4]; 914 nM in test [5]; 1650 nM in test [6]; 279 nM in test [7]. Further, the half-maximal effective concentration (EC50) is 7 nM in [8]; 9 nM in test [9]; 47 nM in test [10]; 28 nM in [11]; 14 nM in [12]; greater than 10000 nM in test [13]. The same compound registered a 50% cytotoxic concentration (CC50) in [2] greater than 10000 nM.
`CCOC(=O)C12CC1(c1ccc(-c3ccccc3)cc1)c1cc(Cl)ccc1NC2=O` (centres undefined) showed a 50% effective concentration (EC50) in test [1] greater than 10000 nM. This compound also registered a CC50 in test [2] greater than 10000 nM.
In test [1], `CCOC(=O)C12CC1(C1CC1)c1cc(Cl)ccc1NC2=O` (centres undefined) showed a concentration for a half-maximal effect (EC50) greater than 10000 nM. This compound showed a CC50 in test [2] greater than 10000 nM.
In turn, `CCCCC12CC1(C(=O)NCc1ccccc1)C(=O)Nc1ccc(Cl)cc12` (centres undefined) registered an EC50 in [1] of 2820 nM. Also, in [2], the CC50 is 8820 nM.
The like results for `C=CCOCC12CC1(CCCC)c1cc(Cl)ccc1NC2=O` (centres undefined) were, in that order, 240 nM and greater than 10000 nM.
For the compound `CCOC(=O)C12CC1(C1CCCCC1)c1cc(Cl)ccc1NC2=O` (centres undefined), the half-maximal effective concentration (EC50) in test [1] is greater than 10000 nM. The CC50 in [2] is greater than 10000 nM.
In test [1], `CCCCC12CCC1(C(=O)OCC)C(=O)Nc1ccc(Cl)cc12` (centres undefined) yielded a concentration giving a half-maximal response (EC50) of 102 nM. In [2], the half-maximal cytotoxic concentration (CC50) was greater than 10000 nM.
The like results for `CCCCc1c(C(=O)OCC)c(O)nc2ccc(Cl)cc12` were, in that order, 166 nM and greater than 10000 nM.
The like results for `CCCCC12CC1(C(=O)N1CCCC1)C(=O)Nc1ccc(Cl)cc12` (centres undefined) were, in that order, greater than 10000 nM and greater than 10000 nM.
The like results for `CCCCC12CC1(C(=O)N1CCC1)C(=O)Nc1ccc(Cl)cc12` (centres undefined) were, in that order, greater than 10000 nM and greater than 10000 nM.
For the compound `CCCCC12CC1(C(=O)OCC=C(C)C)C(=O)Nc1ccc(Cl)cc12` (centres undefined), a half-maximal response in test [1] (EC50) required 2360 nM. In test [2], this compound registered a CC50 greater than 10000 nM.
Consider `CCCCC12CC1(C(=O)Nc1ccccc1C#N)C(=O)Nc1ccc(Cl)cc12` (centres undefined), for which the midpoint of the response in [1], the EC50, lay at 1710 nM. Moreover, the midpoint of cytotoxicity in test [2], the CC50, lay at 6090 nM.
For the compound `O=C1Nc2ccc(Cl)cc2C(C#CC2CC2)(C(F)(F)F)O1` (single isomer, unassigned) [EFAVIRENZ], the EC50 in test [4] came to 1 nM; in test [5], 6 nM; in test [7], 4 nM; in [8], 1 nM; in [9], 2 nM; in test [10], 2 nM. Further, the concentration giving a half-maximal response (EC50) in test [11] was 1 nM; in [13], 280 nM. In test [2], this compound displayed a CC50 greater than 10000 nM.
`Cc1ccnc2c1NC(=O)c1cccnc1N2C1CC1` [NEVIRAPINE]: the EC50 in test [4] is 3000 nM; in [5], 116 nM; in test [6], greater than 10000 nM; in [7], 8460 nM; in [8], 148 nM; in test [9], 112 nM. Besides, the half-maximal effective concentration (EC50) in test [10] is 31 nM; in [11], 79 nM; in test [13], greater than 10000 nM. For the same compound, the cytotoxic concentration (CC50) in [2] is greater than 10000 nM.
